Experimental data from US20220151887A1 (AQUA BANK CO.,LTD., priority 2019, published 2022).

Key:
[1] = Description: (§1) The selection criteria were good health and no smoking. The subjects were allowed to sit in a sitting position for 30 minutes after entering a test room set at a room temperature of 24° C. and a relative humidity of 50% to acclimatize to the experimental environment. After acclimation, physiological measurements were conducted. As the physiological measurements, skin temperature measurements were performed.
<<Evaluation of Pupil Contraction Rate in Pupil Reaction to Light by Measuring Pupil Reaction to Light (Single Time Evaluation Test (FIG. 6))>>
After confirming that the pupil dilatation was stable, light stimulation was given for 0.1 seconds. […] The pupil contraction rate (CR), which is the rate of pupil contraction, was determined by the following expression:
Note that the pupil rapidly dilates after it contracts, and the pupil expanding speed (vd) at that time reflects the state of sympathetic nervous activity. The predominance of sympathetic nervous activity and parasympathetic nervous activity in autonomous nervous activity was determined by analysis of changes in pupil diameter.

[2] = remark: listed apart in the source
Description: as §1
<<Evaluation of Sympathetic Nervous Activity by Measuring Skin Temperature ((Single Time Evaluation Test (FIG. 7))>>
Since many of the peripheral blood vessel networks are controlled by sympathetic nervous activity, the predominance or inferiority of sympathetic nervous activity can be evaluated by measuring changes in blood flow in the peripheral site or changes in skin temperature in the peripheral site. Therefore, in this verification, the change in skin temperature was used as the index. In other words, changes in the skin temperatures (at the center of the forehead and the first segment pad of the index finger) of the peripheral site were measured by a temperature sensor (manufactured by Gram Corporation). The increased skin temperature in the test product is determined by the following expression:
where H1 is the temperature of the forehead center part of the control, F1 is the temperature of the finger pad center part of the control, H2 is the temperature of the forehead center part of the sample, and F2 is the temperature of the finger pad center part of the sample.
Note that, in the measurement data analysis in the physiological evaluation, the difference between the control and the blank and the difference between the test product and the blank were compared using the t-test. The significance level of the t-test was set to less than 5%.

[3] = hydrogen continuous use period 2 weeks, cheek, not significant vs non-continuous use period
Description: (§2) During the test period, each subject was required to perform the same skin care method as they do on a daily basis, and not to add or change cosmetics or supplements.
In other words, the subjects were divided into two groups, Group A and Group B each having 11 subjects. […] Skin physiological measurements were conducted at the start of the test (zero week), the second and fourth weeks (actually, the subjects also answered questionnaires of the 30 items of the stress checklist and the multifaceted emotion scale for verification of influences on stress, which is a factor of increased skin metabolism, as is omitted here). […]
(§3) The skin physiological measurements include: the stratum corneum water content; transepidermal water loss; skin viscoelasticity; skin color; facial image analysis by photographing with a digital imaging device (VSIA); and skin blood flow measurement with a non-contact blood flow meter. […] In the measurements listed below, the cheek site, which was the measurement site, was measured after 15 minutes of acclimation in a constant temperature and humidity chamber (temperature 20±2° C., humidity 50±10%) after the face washing. What was measured in each measurement are described below.
The degree of skin moisturization was determined by measuring the stratum corneum water content. […]

[4] = remark: listed apart in the source
Description: as §2
(§4) In other words, the subjects were divided into two groups, Group A and Group B each having 11 subjects. […] Skin physiological measurements were conducted at the start of the test (zero week), the second and fourth weeks (actually, the subjects also answered questionnaires of the 30 items of the stress checklist and the multifaceted emotion scale for verification of influences on stress, which is a factor of increased skin metabolism, as is omitted here). The measurement items include: the stratum corneum water content; transepidermal water loss; skin viscoelasticity; skin color; facial image analysis by photographing with a digital imaging device (VSIA); and skin blood flow measurement with a non-contact blood flow meter.
(§5) The subjects executed the inhalation for five minutes each time in the morning and evening and approximately 1 hour after each meal, as in the single time test, with the goal of using five times a day.
The skin physiological measurements include: the stratum corneum water content; transepidermal water loss; skin viscoelasticity; skin color; facial image analysis by photographing with a digital imaging device (VSIA); and skin blood flow measurement with a non-contact blood flow meter. […] In the measurements listed below, the cheek site, which was the measurement site, was measured after 15 minutes of acclimation in a constant temperature and humidity chamber (temperature 20±2° C., humidity 50±10%) after the face washing. What was measured in each measurement are described below. […]
(§6) The p-value was calculated as the probability to determine whether there was a statistically significant difference in the difference average values of the respective groups, and the effect size was calculated as an index representing the magnitude of the difference between the difference average values, so that the two groups are compared with each other.

[5] = hydrogen continuous use period 2 weeks, difference not significant
Description: as §2, §4, §5, §3
The measurements were performed at zero, second and fourth weeks.

[6] = remark: listed apart in the source
Description: as §2, §4, §5, §3
Skin images of the measurement site were photographed using VISIA (registered trademark) Evolution (Canfield Imaging Systems), and each skin property was analyzed. The software attached to the device was used to measure the scores of pores, spots, wrinkles, texture, redness, porphyrin, and brown spots. The measurements were performed at zero, second and fourth weeks.
as §6

[7] = hydrogen continuous use period vs non-continuous use period
[8] = hydrogen continuous use period vs nonuse period

[HH] [hydrogen]
pupil expanding speed (vd) ([1]; after hydrogen inhalation (not shown)): almost unchanged | pupil contraction rate in the pupil reaction to light ([1]; after hydrogen inhalation for 1, 3, 5, 7 and 9 minutes (FIG. 6)): increased significantly in a time-dependent manner | pupil contraction rate CR ([1]; after hydrogen inhalation, especially 5 minutes or more, vs before inhalation, p<0.001): significantly increased | skin temperature of the index finger, average increase ([2]; hydrogen inhalation for 5 minutes vs control, 17 subjects, p<0.001): 3.6 °C | skin temperature of the forehead, change ([2]; hydrogen inhalation for 5 minutes vs spontaneous breathing control): hardly found to change | skin temperature of the index finger, increase in individual subjects ([2]; hydrogen inhalation for 5 minutes, some subjects): ≥ 6 °C | skin (stratum corneum) water content, difference average value ([3]; 5 min about five times a day): +34.9 μS | transepidermal water loss, difference average value [3]: +34.9 | instantaneous skin return rate R7 (Ur/Uf), difference average value ([4]; hydrogen continuous use period 2 weeks, cheek, p 0.028 vs nonuse period): 0.01 | R7 (Ur/Uf) effect size ([4]; hydrogen continuous use period vs hydrogen nonuse period): 0.74 | skin return rate R2, difference average value ([4]; hydrogen use period 2 weeks, cheek, p 0.076 vs nonuse period): 0.01 | skin color ΔL* (black and white degree), difference average value ([5]; cheek): +0.30 | skin color Δa* (redness degree), difference average value ([5]; cheek): −0.23 | skin color Δb* (yellowness degree), difference average value ([5]; cheek): −0.20 | skin blood flow changes, difference average value ([5]; entire face): −0.20 | number of porphyrins, difference average value ([6]; hydrogen continuous use period 2 weeks, difference not significant): −103.05 | number of spots, difference average value ([6]; hydrogen continuous use period 2 weeks, p 0.0012 vs nonuse period): −1.8 | redness of the skin color, difference average value ([6]; hydrogen continuous use period 2 weeks, p 0.042 vs non-continuous use period): −5.1 | number of brown spots, difference average value ([6]; hydrogen continuous use period 2 weeks, p 0.046 vs nonuse period): −13.7 | VISIA pores, measured values [6, 7]: no difference | VISIA texture, measured values [6, 7]: no difference | VISIA wrinkles, measured values [6, 7]: no difference | redness, effect size [6, 7]: 0.65 | number of brown spots, effect size [6, 8]: 0.68 | number of spots, effect size [6, 8]: 0.86
